Measured values published in PubChem BioAssay AID1963854 (Molecular Pharmacology Branch, DTP, NCI, 2024).
Values joined by “and” are separate entries in the source; they are usually repeats but may differ in a detail not shown here. Identical values can stand only once.

Test system: 186277-243-T-J2-PDC complex spheroid viability
Experiment: Anticancer human tumor 186277-243-T-J2-PDC patient-derived colon adenocarcinoma cell line growth inhibition [POLQ]
Conditions: for viability, T/C: stronger effect = lower value
Protocol: Multicellular complex tumor spheroid response to Polymerase (POL) inhibitors (novobiocin, ART-558, RP6685) in combination with a variety of drugs and investigational agents in selected tumor cell lines
The POL inhibitors (novobiocin, ART-558, and RP6685) were evaluated both individually and in combination with standard of care and investigational anticancer small molecules within a complex spheroid model of solid tumors. . Complex spheroids include a stromal component modeled by human endothelial cells (HUVEC) and fibroblasts modeled by human mesenchymal stem cells (MSCs). The concentration ranges selected for each drug and investigational agent were based upon clinically achievable concentrations if the clinical Cmax of the agent was known.
Compounds. The drugs and investigational agents: novobiocin (NSC847541), ART-558 (NSC835418), RP-6685 (NSC848927), peposertib (NSC802822), ceralasertib (NSC780249), elimusertib (NSC800525), camonsertib (NSC841442), AZD-1390 (NSC803789), olaparib (NSC753686), talazoparib (NSC767125), rucaparib (NSC756644), sotorasib (NSC818433), MRTX-1133 (NSC836407), SN-38 (NSC673596), topotecan (NSC609699), epotoside (NSC141540), doxorubicin (NSC123127), gemcitabine (NSC613327), 5-fluorouracil (NSC19893), paclitaxel (NSC125973), vemurafenib (NSC761431), MSA-2 (NSC828583), SN-011 (NSC837082), adavosertib (NSC754352), prexasertib (NSC758257), carboplatin (NSC241240) and oxaliplatin (NSC266046), were obtained from the National Cancer Institute (NCI) Developmental Therapeutics Program Chemical Repository (21). The FDA-approved anticancer drug set is available from the Developmental Therapeutics Program at https://dtp.cancer.gov/organization/dscb/obtaining/. […] The stock solutions were prepared in dimethyl sulfoxide (DMSO, Sigma-Aldrich, St. Louis, MO, cat. D2650), except for the platinum compounds which were prepared in saline (Quality Biological, Gaithersburg, MD, cat. 114-055-101), at 800-fold the tested concentration and stored at -70 degrees C prior to their use. All drugs and investigational agents were tested over a range starting from a high concentration at or near the clinical Cmax and decreasing in half-log increments. If the clinical Cmax for an agent had not been determined, the highest concentration tested was 10 microM, except for SN-38, which was tested at a high concentration of 1 microM.
Cell Culture. All cells were maintained in an incubator at 37 degrees C and 5% CO2 with 95% humidity. The PDC lines were cultured according to standard operating procedures established by the NCI PDMR (https://pdmr.cancer.gov). Table 3 of the manuscript, lists the cell lines along with the number of the three cell types plated to form the mct-spheroids and media for tumor cell growth. After thawing, all PDC lines, except 997537-175-T-J1-PDC and 415267-285-R-J2-PDC, were cultured in Matrigel-coated flasks prepared with a working solution of 1X Ham's F-12 nutrient mix, without supplementation (Thermo Fisher Scientific, cat. 11765054), 100 U/mL penicillin-streptomycin (Thermo Fisher Scientific, cat. 15140122), and 2.5% Matrigel (Corning Inc., Corning, NY, cat. 354248) for the first three passages. The two PDC lines 997537-175-T-J1-PDC and 415267-285-R-J2-PDC were cultured on uncoated flasks. The 857933-349-R-J2-PDC line was cultured in 6C/Colon 1B media containing advanced DMEM/F-12 (Thermo Fisher Scientific, cat. 12634028), 10 mM HEPES (Thermo Fisher Scientific, cat. 15630080), 1X GlutaMAX supplement (Thermo Fisher Scientific, cat. 35050061), 0.1 mg/mL primocin (InvivoGen, San Diego, CA, cat. ant-pm-2), 10% defined fetal bovine serum, heat inactivated (HyClone Laboratories Inc., Logan, UT, cat. SH30070.03HI), 50% L-WRN conditioned media (ATCC, cat. CRL-3276), 1.25 mM N-Acetyl-L-cysteine (Sigma-Aldrich, cat. A9165), 10 mM nicotinamide (Sigma-Aldrich, cat. N0636), 1X B-27 supplement (Thermo Fisher Scientific, cat. 17504044), 1X N-2 supplement (Thermo Fisher Scientific, cat. […]
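Note: spheroids exposed to compounds for seven days.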
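Throughout, for viability, T/C: 100% = DMSO vehicle control viability.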

For `CC1COCCN1c1cc(C2(S(C)(=N)=O)CC2)nc(-c2ccnc3[nH]ccc23)n1` (centres undefined), the viability, T/C (compound 0.0316 µM) was 97.6% and 101% and 100%, the viability, T/C (compound 0.1 µM) was 110% and 107% and 101% and the viability, T/C (compound 0.316 µM) was 102% and 106% and 112%. For the same compound, the viability, T/C (compound 1 µM) was 38% and 82.3% and 42.9%, the viability, T/C (compound 3.16 µM) was 7.52% and 14% and 6.48% and the viability, T/C (compound 10 µM) was 5.94% and 9.28% and 6.22%. For the same compound, the IC50 (curve of compound) was 805 nM and 1720 nM and 876 nM.
With `CCc1cc2c(N3CCc4c(cc(Cn5ccnc5)cc4-c4cn(C)nc4C(F)(F)F)C3=O)ccnc2c(OC)n1` the viability, T/C (compound 0.0316 µM) was 103% and 94.2% and 101%, the viability, T/C (compound 0.1 µM) was 91.9% and 87.2% and 87.1% and the viability, T/C (compound 0.316 µM) was 88.2% and 90.2% and 95.8%. For the same compound, the viability, T/C (compound 1 µM) was 84.1% and 101% and 107%, the viability, T/C (compound 3.16 µM) was 87.8% and 103% and 101% and the viability, T/C (compound 10 µM) was 83.4% and 104% and 91.2%. For the same compound, the IC50 (curve of compound) was over 10000 nM.
In the case of `Nc1ccc(C#CCN(C(=O)Cc2ncc(C(F)(F)F)cc2C(F)(F)F)c2ccc(F)cc2)nn1`, the viability, T/C (compound 0.0316 µM) is reported as 103% [middle of 13 runs], the viability, T/C (compound 0.1 µM) is reported as 102% [middle of 13 runs] and the viability, T/C (compound 0.316 µM) is reported as 98.7% [middle of 13 runs]. For the same compound, the viability, T/C (compound 1 µM) was 101% [middle of 13 runs], the viability, T/C (compound 3.16 µM) was 94.9% [middle of 13 runs] and the IC50 (compound alone, run of 11/06/2023) was over 10000 nM.
For `COc1cccc2c1C(=O)c1c(O)c3c(c(O)c1C2=O)CC(O)(C(=O)CO)CC3OC1CC(N)C(O)C(C)O1` (centres undefined) + Nc1ccc(C#CCN(C(=O)Cc2ncc(C(F)(F)F)cc2C(F)(F)F)c2ccc(F)cc2)nn1, the IC50 (curve of first compound, second compound 0.0316 µM) was 255 nM, the IC50 (curve of first compound, second compound 0.1 µM) was 253 nM and the IC50 (curve of first compound, second compound 0.316 µM) was 258 nM. The IC50 (curve of first compound, second compound 1 µM) was 236 nM, the IC50 (curve of first compound, second compound 3.16 µM) was 231 nM and the IC50 (curve of first compound, second compound 10 µM) was 173 nM. The viability, T/C (second compound 0.0316 µM, first compound 0.0316 µM) was 144%, the viability, T/C (second compound 0.0316 µM, first compound 0.1 µM) was 110% and the viability, T/C (second compound 0.0316 µM, first compound 0.316 µM) was 37.2%. For the same compound, the viability, T/C (second compound 0.0316 µM, first compound 1 µM) was 1.35%, the viability, T/C (second compound 0.0316 µM, first compound 3.16 µM) was 0.27% and the viability, T/C (second compound 0.0316 µM, first compound 10 µM) was 1.66%. For the same compound, the viability, T/C (second compound 0.1 µM, first compound 0.0316 µM) was 169%, the viability, T/C (second compound 0.1 µM, first compound 0.1 µM) was 107% and the viability, T/C (second compound 0.1 µM, first compound 0.316 µM) was 39%. For the same compound, the viability, T/C (second compound 0.1 µM, first compound 1 µM) was 1.35%, the viability, T/C (second compound 0.1 µM, first compound 3.16 µM) was 0.37% and the viability, T/C (second compound 0.1 µM, first compound 10 µM) was 1.4%. It also gave a viability, T/C (second compound 0.316 µM, first compound 0.0316 µM) of 156%, a viability, T/C (second compound 0.316 µM, first compound 0.1 µM) of 106% and a viability, T/C (second compound 0.316 µM, first compound 0.316 µM) of 40.7%. The viability, T/C (second compound 0.316 µM, first compound 1 µM) was 1.12%, the viability, T/C (second compound 0.316 µM, first compound 3.16 µM) was 1.33% and the viability, T/C (second compound 0.316 µM, first compound 10 µM) was 0.64%. It also gave a viability, T/C (second compound 1 µM, first compound 0.0316 µM) of 171%, a viability, T/C (second compound 1 µM, first compound 0.1 µM) of 106% and a viability, T/C (second compound 1 µM, first compound 0.316 µM) of 32.5%. For the same compound, the viability, T/C (second compound 1 µM, first compound 1 µM) was 1.58%, the viability, T/C (second compound 1 µM, first compound 3.16 µM) was 1.81% and the viability, T/C (second compound 1 µM, first compound 10 µM) was 2.38%. The viability, T/C (second compound 3.16 µM, first compound 0.0316 µM) was 153%, the viability, T/C (second compound 3.16 µM, first compound 0.1 µM) was 101% and the viability, T/C (second compound 3.16 µM, first compound 0.316 µM) was 32.4%. The viability, T/C (second compound 3.16 µM, first compound 1 µM) was 0.94%, the viability, T/C (second compound 3.16 µM, first compound 3.16 µM) was 1.21% and the viability, T/C (second compound 3.16 µM, first compound 10 µM) was 1.74%. It also gave a viability, T/C (second compound 10 µM, first compound 0.0316 µM) of 131%, a viability, T/C (second compound 10 µM, first compound 0.1 µM) of 76.4% and a viability, T/C (second compound 10 µM, first compound 0.316 µM) of 21.8%. For the same compound, the viability, T/C (second compound 10 µM, first compound 1 µM) was 1.09%, the viability, T/C (second compound 10 µM, first compound 3.16 µM) was 1.27% and the viability, T/C (second compound 10 µM, first compound 10 µM) was 0.63%.
With `COc1ccc([C@@H](O)c2cc(-c3ncnc4cc(N5CCOCC5)ccc34)c(F)cc2Cl)nn1` the viability, T/C (compound 0.0316 µM) was 113% and 93.8% and 106%, the viability, T/C (compound 0.1 µM) was 98% and 93.7% and 97.8% and the viability, T/C (compound 0.316 µM) was 86.5% and 101% and 97.7%. For the same compound, the viability, T/C (compound 1 µM) was 98.4% and 104% (2×), the viability, T/C (compound 3.16 µM) was 80.8% and 96.9% and 74.1% and the viability, T/C (compound 10 µM) was 31.1% and 61% and 30.1%. For the same compound, the IC50 (curve of compound) was 6450 nM and > 10000 nM and 5930 nM.
